Measured values reported in article PMC8161026, “Synthesis and Anticancer Activity Evaluation of 5-[2-Chloro-3-(4-nitrophenyl)-2-propenylidene]-4-thiazolidinones” (Molecules, 2021).

Legend:
[1] = test system: Breast Cancer subpanel; test: cells
Procedure: (§1) At the first stage of biological activity study, the antitumor activity screening of the selected compounds 2b, 2c, 2f, 2h, and 2j was performed according to the NCI DTP (USA) standard protocol at the concentrations ranging from 10^−4 to 10^−8 M toward 60 tumor cell lines. The percentage of growth was evaluated spectrophotometrically versus controls not treated with test agents after 48 h exposure and using SRB protein assay to estimate cell viability or growth. Dose–response parameters were calculated for each cell line: GI50—molar concentration of the compound that inhibits 50% net cell growth; TGI—molar concentration of the compound leading to the total inhibition; and LC50—molar concentration of the compound leading to 50% net cell death. Furthermore, mean graph midpoints (MG_MID) were calculated for each of the parameters, giving an average activity parameter over all cell lines for the tested compound. For the MG_MID calculation, insensitive cell lines were included with the highest concentration tested.
(§2) The selectivity index (SI) obtained by dividing the full panel MG-MID (mM) of the tested compound by their individual subpanel MG-MID (mM) was considered as a measure of selectivity of anticancer activity (Table 3).
(§3) Primary anticancer assay was performed on a panel of approximately sixty human tumor cell lines derived from nine neoplastic diseases, in accordance with the protocol of the Drug Evaluation Branch, National Cancer Institute, Bethesda. Tested compounds were added to the culture at a single concentration (10^−5 M) and the cultures were incubated for 48 h. End point determinations were made with a protein binding dye, sulforhodamine B (SRB). […] The percentage growth was evaluated spectrophotometrically versus controls not treated with test agents.
(§4) Dose–response parameters (GI50, TGI, LC50) were calculated for each compound. […] The drug concentration resulting in total growth inhibition (TGI) was calculated from Ti = Tz. The LC50 (concentration of drug resulting in a 50% reduction in the measured protein at the end of the drug treatment as compared to that at the beginning) indicating a net loss of cells following treatment was calculated from [(Ti − Tz)/Tz] × 100 = −50 (2). Values were calculated for each of these parameters if the level of activity was reached; however, if the effect was not reached or was excessive, the value for that parameter was expressed as more or less than the maximum or minimum concentration tested.

[2] = test system: CNS Cancer subpanel; test: cells
Procedure: as §1, §2, §3, §4

[3] = test system: Colon Cancer subpanel; test: cells
Procedure: as §1, §2, §3, §4

[4] = test system: Leukemia subpanel; test: cells
Procedure: as §1, §2, §3, §4

[5] = test system: Melanoma subpanel; test: cells
Procedure: as §1, §2, §3, §4

[6] = test system: Non-Small Cell Lung Cancer subpanel; test: cells
Procedure: as §1, §2, §3, §4

[7] = test system: Ovarian Cancer subpanel; test: cells
Procedure: as §1, §2, §3, §4

[8] = test system: Prostate Cancer subpanel; test: cells
Procedure: as §1, §2, §3, §4

[9] = test system: Renal Cancer subpanel; test: cells
Procedure: as §1, §2, §3, §4

[10] = test system: 60 tumor cell lines; test: NCI60 full panel MG_MID
Procedure: as §1, §3, §4

[11] = test system: MOLT-4; details: MOLT-4 (Leukemia), 48 h, SRB
[12] = test system: MOLT-4; test: cells; details: Homo sapiens, MOLT-4, 48 h
[13] = test system: T-47D; details: T-47D (Breast Cancer), 48 h, SRB
[14] = test system: RPMI-8226; test: cells; details: Homo sapiens, RPMI-8226, 48 h
[15] = test system: DU-145; test: cells; details: Homo sapiens, DU-145, 48 h
[16] = test system: T-47D; test: cells; details: Homo sapiens, T47D, 48 h
[17] = test system: HOP-92; test: NCI DTP 60 cell line screen, SRB
[18] = test system: Colo 205; test: NCI DTP 60 cell line screen, SRB
[19] = test system: OVCAR-4; test: NCI DTP 60 cell line screen, SRB
[20] = Homo sapiens, read-out: MG_MID, GI50
[21] = Homo sapiens, read-out: MG_MID, LC50
[22] = full panel MG_MID / Breast Cancer subpanel MG_MID
[23] = full panel MG_MID / CNS Cancer subpanel MG_MID
[24] = full panel MG_MID / Colon Cancer subpanel MG_MID
[25] = full panel MG_MID / Leukemia subpanel MG_MID
[26] = full panel MG_MID / Melanoma subpanel MG_MID
[27] = full panel MG_MID / Non-Small Cell Lung Cancer subpanel MG_MID
[28] = full panel MG_MID / Ovarian Cancer subpanel MG_MID
[29] = full panel MG_MID / Prostate Cancer subpanel MG_MID
[30] = full panel MG_MID / Renal Cancer subpanel MG_MID

O=C1NC(=S)S/C1=C\C(Cl)=C\c1ccc([N+](=O)[O-])cc1 [Compound 2b, 5-[(Z,2Z)-2-Chloro-3-(4-nitrophenyl)-2-propenylidene]-2-thioxo-4-thiazolidinone]
MG_MID, TGI ([1]; Breast Cancer panel mean): 28.4 µM | GI50 [1, 20]: 4.38 µM | CC50 [1, 21]: 46.7 µM | SI (selectivity index), GI50 [1, 22]: 1.09 | SI (selectivity index), LC50 [1, 22]: 0.93 | SI (selectivity index), TGI [1, 22]: 0.71 | MG_MID, TGI ([2]; CNS Cancer panel mean): 22.4 µM | GI50 [2, 20]: 6.98 µM | CC50 [2, 21]: 45.4 µM | SI (selectivity index), GI50 [2, 23]: 0.69 | SI (selectivity index), LC50 [2, 23]: 0.96 | SI (selectivity index), TGI [2, 23]: 0.91 | MG_MID, TGI ([3]; Colon Cancer panel mean): 11.5 µM | GI50 [3, 20]: 3.27 µM | CC50 [3, 21]: 35.4 µM | SI (selectivity index), GI50 [3, 24]: 1.46 | SI (selectivity index), LC50 [3, 24]: 1.23 | SI (selectivity index), TGI [3, 24]: 1.77 | GI50 [4, 20]: 1.51 µM | CC50 [4, 21]: > 50 µM | MG_MID, TGI ([4]; Leukemia panel mean): 20.2 µM | SI (selectivity index), GI50 [4, 25]: 3.17 | SI (selectivity index), LC50 [4, 25]: <0.87 | SI (selectivity index), TGI [4, 25]: 1.00 | GI50 [5, 20]: 5.57 µM | CC50 [5, 21]: 36.8 µM | MG_MID, TGI ([5]; Melanoma panel mean): 16.1 µM | SI (selectivity index), GI50 [5, 26]: 0.86 | SI (selectivity index), LC50 [5, 26]: 1.18 | SI (selectivity index), TGI [5, 26]: 1.26 | GI50 [6, 20]: 3.79 µM | CC50 [6, 21]: 48.6 µM | MG_MID, TGI ([6]; Non-Small Cell Lung Cancer panel mean): 29.7 µM | SI (selectivity index), GI50 [6, 27]: 1.26 | SI (selectivity index), LC50 [6, 27]: 0.90 | SI (selectivity index), TGI [6, 27]: 0.68 | GI50 [7, 20]: 6.68 µM | CC50 [7, 21]: 42.8 µM | MG_MID, TGI ([7]; Ovarian Cancer panel mean): 21.0 µM | SI (selectivity index), GI50 [7, 28]: 0.72 | SI (selectivity index), LC50 [7, 28]: 1.02 | SI (selectivity index), TGI [7, 28]: 0.97 | GI50 [8, 20]: 5.89 µM | CC50 [8, 21]: 39.2 µM | MG_MID, TGI ([8]; Prostate Cancer panel mean): 32.1 µM | SI (selectivity index), GI50 [8, 29]: 0.81 | SI (selectivity index), LC50 [8, 29]: 1.11 | SI (selectivity index), TGI [8, 29]: 0.63 | GI50 [9, 20]: 6.23 µM | CC50 [9, 21]: 42.9 µM | MG_MID, TGI ([9]; Renal Cancer panel mean): 18.7 µM | SI (selectivity index), GI50 [9, 30]: 0.77 | SI (selectivity index), LC50 [9, 30]: 1.01 | SI (selectivity index), TGI [9, 30]: 1.09 | GI50 ([10]; Homo sapiens, read-out: 60 lines MG_MID, GI50): 4.79 µM | CC50 ([10]; Homo sapiens, read-out: 60 lines MG_MID, LC50): 43.5 µM | 60 lines MG_MID, TGI ([10]; mean over all cell lines): 20.3 µM | TGI [11]: 14.2 µM | GI50 [12]: 1.74 µM | CC50 ([12]; read-out: LC50): > 50 µM | TGI [13]: > 50 µM | GI50 [14]: 1.54 µM | CC50 ([14]; read-out: LC50): > 50 µM | GI50 [15]: 7.09 µM | CC50 ([15]; read-out: LC50): 28.4 µM | GI50 [16]: 3.21 µM | CC50 ([16]; read-out: LC50): > 50 µM | TGI ([17]; HOP-92 (Non-Small Cell Lung Cancer), 48 h, SRB): > 50 µM | GI50 ([17]; Homo sapiens, HOP-92, 48 h): 8.48 µM | CC50 ([17]; Homo sapiens, HOP-92, 48 h, read-out: LC50): > 50 µM | TGI ([18]; Colo 205 (Colon Cancer), 48 h, SRB): 17.4 µM | GI50 ([18]; Homo sapiens, COLO 205, 48 h): 4.04 µM | CC50 ([18]; Homo sapiens, COLO 205, 48 h, read-out: LC50): > 50 µM | GI50 ([19]; Homo sapiens, OVCAR-4, 48 h): 1.95 µM | CC50 ([19]; Homo sapiens, OVCAR-4, 48 h, read-out: LC50): > 50 µM | TGI ([19]; OVCAR-4 (Ovarian Cancer), 48 h, SRB): 11.7 µM
